What was measured:
MDA-MB-231 = assay: Antiproliferative activity against human MDA-MB-231 cells after 48 hrs by MTT assay; format: functional, cell-based; settings: MDA-MB-231, 48 h
MCF7 = assay: Antiproliferative activity against human MCF7 cells after 48 hrs by MTT assay; format: functional, cell-based; settings: MCF7, 48 h

IC50 (MDA-MB-231) [µM]	IC50 (MCF7) [nM]	Structure (SMILES)
4.66	740	CC[C@@H](C(=O)[C@@H](C)[C@@H](O)[C@H](C)[C@@H]1O[C@@H]([C@@H](CC)C(=O)O)CC[C@@H]1C)[C@H]1O[C@]2(C=C[C@@H](OC(=O)Cn3cc(COCc4cn(CC(=O)O[C@@H]5C=C[C@]6(O[C@H]([C@@H](CC)C(=O)[C@@H](C)[C@@H](O)[C@H](C)[C@@H]7O[C@@H]([C@@H](CC)C(=O)O)CC[C@@H]7C)[C@@H](C)C[C@H]6C)O[C@@]56CC[C@@](C)([C@H]5CC[C@](O)(CC)[C@H](C)O5)O6)nn4)nn3)[C@]3(CC[C@@](C)([C@H]4CC[C@](O)(CC)[C@H](C)O4)O3)O2)[C@H](C)C[C@@H]1C
19.6	16300	CC[C@@H](C(=O)[C@@H](C)[C@@H](O)[C@H](C)[C@@H]1O[C@@H]([C@@H](CC)C(=O)OCc2cn(CCCCCCC(=O)O)nn2)CC[C@@H]1C)[C@H]1O[C@]2(C=C[C@@H](O)[C@]3(CC[C@@](C)([C@H]4CC[C@](O)(CC)[C@H](C)O4)O3)O2)[C@H](C)C[C@@H]1C
1.94	3660	CC[C@@H](C(=O)[C@@H](C)[C@@H](O)[C@H](C)[C@@H]1O[C@@H]([C@@H](CC)C(=O)O)CC[C@@H]1C)[C@H]1O[C@]2(C=C[C@@H](OC(=O)Cn3cc(CCCC(=O)O)nn3)[C@]3(CC[C@@](C)([C@H]4CC[C@](O)(CC)[C@H](C)O4)O3)O2)[C@H](C)C[C@@H]1C
3.33	1650	CC[C@@H](C(=O)[C@@H](C)[C@@H](O)[C@H](C)[C@@H]1O[C@@H]([C@@H](CC)C(=O)O)CC[C@@H]1C)[C@H]1O[C@]2(C=C[C@@H](OC(=O)Cn3cc(-c4cccc(N)c4)nn3)[C@]3(CC[C@@](C)([C@H]4CC[C@](O)(CC)[C@H](C)O4)O3)O2)[C@H](C)C[C@@H]1C
26.2	19900	CC[C@@H](C(=O)[C@@H](C)[C@@H](O)[C@H](C)[C@@H]1O[C@@H]([C@@H](CC)C(=O)OCc2cn(CCCCC(=O)O)nn2)CC[C@@H]1C)[C@H]1O[C@]2(C=C[C@@H](O)[C@]3(CC[C@@](C)([C@H]4CC[C@](O)(CC)[C@H](C)O4)O3)O2)[C@H](C)C[C@@H]1C
2.72	3340	CC[C@@H](C(=O)[C@@H](C)[C@@H](O)[C@H](C)[C@@H]1O[C@@H]([C@@H](CC)C(=O)O)CC[C@@H]1C)[C@H]1O[C@]2(C=C[C@@H](OC(=O)Cn3cc(CO)nn3)[C@]3(CC[C@@](C)([C@H]4CC[C@](O)(CC)[C@H](C)O4)O3)O2)[C@H](C)C[C@@H]1C
87.4	37300	CC[C@@H](C(=O)[C@@H](C)[C@@H](O)[C@H](C)[C@@H]1O[C@@H]([C@@H](CC)C(=O)OCc2cn(CCC(=O)O)nn2)CC[C@@H]1C)[C@H]1O[C@]2(C=C[C@@H](O)[C@]3(CC[C@@](C)([C@H]4CC[C@](O)(CC)[C@H](C)O4)O3)O2)[C@H](C)C[C@@H]1C
4.72	2120	CC[C@@H](C(=O)[C@@H](C)[C@@H](O)[C@H](C)[C@@H]1O[C@@H]([C@@H](CC)C(=O)O)CC[C@@H]1C)[C@H]1O[C@]2(C=C[C@@H](OC(=O)Cn3cc(CCO)nn3)[C@]3(CC[C@@](C)([C@H]4CC[C@](O)(CC)[C@H](C)O4)O3)O2)[C@H](C)C[C@@H]1C
6.69	600	CC[C@@H](C(=O)[C@@H](C)[C@@H](O)[C@H](C)[C@@H]1O[C@@H]([C@@H](CC)C(=O)O)CC[C@@H]1C)[C@H]1O[C@]2(C=C[C@@H](OC(=O)Cn3cc(COCCOC(=O)c4cn(CC(=O)O[C@@H]5C=C[C@]6(O[C@H]([C@@H](CC)C(=O)[C@@H](C)[C@@H](O)[C@H](C)[C@@H]7O[C@@H]([C@@H](CC)C(=O)O)CC[C@@H]7C)[C@@H](C)C[C@H]6C)O[C@@]56CC[C@@](C)([C@H]5CC[C@](O)(CC)[C@H](C)O5)O6)nn4)nn3)[C@]3(CC[C@@](C)([C@H]4CC[C@](O)(CC)[C@H](C)O4)O3)O2)[C@H](C)C[C@@H]1C
4.31	3640	CC[C@@H](C(=O)[C@@H](C)[C@@H](O)[C@H](C)[C@@H]1O[C@@H]([C@@H](CC)C(=O)OCc2cn(CCCCCCCCCCC(=O)O)nn2)CC[C@@H]1C)[C@H]1O[C@]2(C=C[C@@H](O)[C@]3(CC[C@@](C)([C@H]4CC[C@](O)(CC)[C@H](C)O4)O3)O2)[C@H](C)C[C@@H]1C
4.06	910	CC[C@@H](C(=O)[C@@H](C)[C@@H](O)[C@H](C)[C@@H]1O[C@@H]([C@@H](CC)C(=O)O)CC[C@@H]1C)[C@H]1O[C@]2(C=C[C@@H](OC(=O)Cn3cc(COCCOCc4cn(CC(=O)O[C@@H]5C=C[C@]6(O[C@H]([C@@H](CC)C(=O)[C@@H](C)[C@@H](O)[C@H](C)[C@@H]7O[C@@H]([C@@H](CC)C(=O)O)CC[C@@H]7C)[C@@H](C)C[C@H]6C)O[C@@]56CC[C@@](C)([C@H]5CC[C@](O)(CC)[C@H](C)O5)O6)nn4)nn3)[C@]3(CC[C@@](C)([C@H]4CC[C@](O)(CC)[C@H](C)O4)O3)O2)[C@H](C)C[C@@H]1C
6.48	1860	CC[C@@H](C(=O)[C@@H](C)[C@@H](O)[C@H](C)[C@@H]1O[C@@H]([C@@H](CC)C(=O)O)CC[C@@H]1C)[C@H]1O[C@]2(C=C[C@@H](OC(=O)Cn3cc(C(=O)O)nn3)[C@]3(CC[C@@](C)([C@H]4CC[C@](O)(CC)[C@H](C)O4)O3)O2)[C@H](C)C[C@@H]1C
> 100	13700	CC[C@@H](C(=O)[C@@H](C)[C@@H](O)[C@H](C)[C@@H]1O[C@@H]([C@@H](CC)C(=O)OCc2cn(CC(=O)O)nn2)CC[C@@H]1C)[C@H]1O[C@]2(C=C[C@@H](O)[C@]3(CC[C@@](C)([C@H]4CC[C@](O)(CC)[C@H](C)O4)O3)O2)[C@H](C)C[C@@H]1C
3.13	2030	CC[C@@H](C(=O)[C@@H](C)[C@@H](O)[C@H](C)[C@@H]1O[C@@H]([C@@H](CC)C(=O)O)CC[C@@H]1C)[C@H]1O[C@]2(C=C[C@@H](OC(=O)Cn3cc(CCC(=O)O)nn3)[C@]3(CC[C@@](C)([C@H]4CC[C@](O)(CC)[C@H](C)O4)O3)O2)[C@H](C)C[C@@H]1C
9.01	710	CC[C@@H](C(=O)[C@@H](C)[C@@H](O)[C@H](C)[C@@H]1O[C@@H]([C@@H](CC)C(=O)O)CC[C@@H]1C)[C@H]1O[C@]2(C=C[C@@H](OC(=O)Cn3cc(CCOC(=O)c4cn(CC(=O)O[C@@H]5C=C[C@]6(O[C@H]([C@@H](CC)C(=O)[C@@H](C)[C@@H](O)[C@H](C)[C@@H]7O[C@@H]([C@@H](CC)C(=O)O)CC[C@@H]7C)[C@@H](C)C[C@H]6C)O[C@@]56CC[C@@](C)([C@H]5CC[C@](O)(CC)[C@H](C)O5)O6)nn4)nn3)[C@]3(CC[C@@](C)([C@H]4CC[C@](O)(CC)[C@H](C)O4)O3)O2)[C@H](C)C[C@@H]1C
44.1	36300	CC[C@@H](C(=O)[C@@H](C)[C@@H](O)[C@H](C)[C@@H]1O[C@@H]([C@@H](CC)C(=O)OCc2cn(CCCCCC(=O)O)nn2)CC[C@@H]1C)[C@H]1O[C@]2(C=C[C@@H](O)[C@]3(CC[C@@](C)([C@H]4CC[C@](O)(CC)[C@H](C)O4)O3)O2)[C@H](C)C[C@@H]1C
4.09	1230	CC[C@@H](C(=O)[C@@H](C)[C@@H](O)[C@H](C)[C@@H]1O[C@@H]([C@@H](CC)C(=O)O)CC[C@@H]1C)[C@H]1O[C@]2(C=C[C@@H](OC(=O)Cn3cc(COCCO)nn3)[C@]3(CC[C@@](C)([C@H]4CC[C@](O)(CC)[C@H](C)O4)O3)O2)[C@H](C)C[C@@H]1C
5.83	1880	CC[C@@H](C(=O)[C@@H](C)[C@@H](O)[C@H](C)[C@@H]1O[C@@H]([C@@H](CC)C(=O)O)CC[C@@H]1C)[C@H]1O[C@]2(C=C[C@@H](OC(=O)CCl)[C@]3(CC[C@@](C)([C@H]4CC[C@](O)(CC)[C@H](C)O4)O3)O2)[C@H](C)C[C@@H]1C
52.1	41200	CC[C@@H](C(=O)[C@@H](C)[C@@H](O)[C@H](C)[C@@H]1O[C@@H]([C@@H](CC)C(=O)OCc2cn(CCCC(=O)O)nn2)CC[C@@H]1C)[C@H]1O[C@]2(C=C[C@@H](O)[C@]3(CC[C@@](C)([C@H]4CC[C@](O)(CC)[C@H](C)O4)O3)O2)[C@H](C)C[C@@H]1C

Structure (SMILES)	IC50 (MDA-MB-231) [µM]	IC50 (MCF7) [nM]
CC[C@@H](C(=O)[C@@H](C)[C@@H](O)[C@H](C)[C@@H]1O[C@@H]([C@@H](CC)C(=O)O)CC[C@@H]1C)[C@H]1O[C@]2(C=C[C@@H](O)[C@]3(CC[C@@](C)([C@H]4CC[C@](O)(CC)[C@H](C)O4)O3)O2)[C@H](C)C[C@@H]1C [SALINOMYCIN]	6.42	2980

From ChEMBL document CHEMBL3992501, “Synthesis and biological evaluation of salinomycin triazole analogues as anticancer agents” (Eur J Med Chem, 2017)
